According to ChEMBL document CHEMBL5154709, “Tetrazole derivatives bearing benzodiazepine moiety-synthesis and action mode against virulence of Candida albicans” (Eur J Med Chem, 2022):
Values after ≈ are worked out from the molar mass of the structure shown. Active and inactive are the calls of the source. The calls are words filed in the database; no cut-off is given here.

Legend:
Candida albicans [1] = assay: Antifungal activity against Candida albicans SC5314 assessed as inhibition of fungal growth at 8 ug/ml incubated for 48 hrs by M27-A3 based microdilution method relative to control; type: functional
Candida albicans [2] = assay: Antifungal activity against Candida albicans SC5314 assessed as inhibition of fungal growth at 1 ug/ml incubated for 48 hrs by M27-A3 based microdilution method relative to control; type: functional
[3] = Cytotoxicity against human TR146 cells at more than 64 ug/ml measured after 24 hrs by XTT assay; type: toxicity, cell-based; settings: tr146, 24 h, dose 64 µg/ml
Candida albicans [4] = assay: Antifungal activity against Candida albicans SC5314 assessed as inhibition of fungal growth at 16 ug/ml incubated for 18 hrs by M27-A3 based microdilution method relative to control; type: functional
Candida albicans [5] = assay: Antifungal activity against Candida albicans SC5314 assessed as inhibition of fungal growth at 0.5 ug/ml incubated for 48 hrs by M27-A3 based microdilution method relative to control; type: functional
Candida albicans [6] = assay: Antifungal activity against Candida albicans SC5314 assessed as inhibition of fungal growth at 4 ug/ml incubated for 48 hrs by M27-A3 based microdilution method relative to control; type: functional
Candida albicans [7] = assay: Antifungal activity against Candida albicans SC5314 assessed as inhibition of fungal growth at 0.125 ug/ml incubated for 18 hrs by M27-A3 based microdilution method relative to control; type: functional
[8] = Toxicity in Galleria mellonella larvae assessed as melanization of larvae at 16 ug/ml measured every 24 hrs for 4 to 5 days relative to control; settings: at 16 µg/mL, time 4-5 day
Candida albicans [9] = assay: Antifungal activity against Candida albicans SC5314 assessed as inhibition of fungal growth at 2 ug/ml incubated for 48 hrs by M27-A3 based microdilution method relative to control; type: functional
Candida albicans [10] = assay: In vivo antifungal activity against Candida albicans SC5314 infected in Galleria mellonella larvae assessed as survival rate of larvae at 16 ug/ml administered 1 hr prior to infection measured within 5 days by Hematoxylin and eosin staining; type: functional; settings: SC5314, 120 h, time 5 day
Candida albicans [11] = assay: Antifungal activity against Candida albicans SC5314 assessed as inhibition of fungal growth at 0.5 ug/ml incubated for 18 hrs by M27-A3 based microdilution method relative to control; type: functional
Candida albicans [12] = assay: Antifungal activity against Candida albicans SC5314 assessed as inhibition of fungal growth at 0.0625 ug/ml incubated for 48 hrs by M27-A3 based microdilution method relative to control; type: functional
Candida albicans [13] = assay: Antifungal activity against Candida albicans assessed as inhibition of fungal growth measured after 48 hrs by M27-A3 based broth microdilution; type: functional
Candida albicans [14] = assay: Fungicidal activity against Candida albicans SC5314 assessed as inhibition of fungal growth incubated for 48 hrs by M27-A3 based microdilution method; type: functional
Candida albicans [15] = assay: Antifungal activity against Candida albicans SC5314 assessed as inhibition of fungal growth at 2 ug/ml incubated for 18 hrs by M27-A3 based microdilution method relative to control; type: functional
Candida albicans [16] = assay: Antifungal activity against Candida albicans SC5314 assessed as inhibition of fungal growth at 0.25 ug/ml incubated for 48 hrs by M27-A3 based microdilution method relative to control; type: functional
Candida albicans [17] = assay: Antifungal against Candida albicans SC5314 biofilm assessed as amorphous layer of cell surface barrier at 16 ug/ml incubated for 18 hrs by Rho123 and Hoechst 33342 double staining based confocal laser scanning microscopic analysis; type: functional, organism-based; settings: dose 16.0 µg/ml
Candida albicans [18] = assay: Antifungal activity against Candida albicans SC5314 assessed as inhibition of fungal growth at 8 ug/ml incubated for 18 hrs by M27-A3 based microdilution method relative to control; type: functional
Candida albicans [19] = assay: Induction of cell cycle arrest in Candida albicans SC5314 assessed as accumulation of cells in G0/G1 phase at 16 ug/ml incubated fro 18 hrs by PI staining based flow cytometry method; type: functional, organism-based; settings: dose 16.0 µg/ml
Candida albicans [20] = assay: Antifungal activity against Candida albicans SC5314 assessed as inhibition of fungal growth at 1 ug/ml incubated for 18 hrs by M27-A3 based microdilution method relative to control; type: functional
Candida albicans [21] = assay: Antifungal activity against Candida albicans SC5314 assessed as inhibition of fungal growth at 0.25 ug/ml incubated for 18 hrs by M27-A3 based microdilution method relative to control; type: functional
Candida albicans [22] = assay: Induction of reactive oxygen species generation in Candida albicans CNB1/cnb1delta mutant assessed as increase in ROS level at 16 ug/ml incubated for 18 hrs by DCFH-DA staining based flow cytometric analysis (reference value: 3.8+/- 4.2%); type: functional; settings: dose 16 µg/ml
Candida albicans [23] = assay: Induction of apoptosis in Candida albicans SC5314 protoplast cells assessed as necrotic cells at 16 ug/ml incubated for 18 hrs by PI/Annexin V staining based flow cytometry assay; type: functional; settings: dose 16 µg/ml
Candida albicans [24] = assay: Antifungal activity against Candida albicans assessed as inhibition of fungal growth measured after 48 hrs in presence of exogenous ergosterol by M27-A3 based broth microdilution; type: functional
Candida albicans [25] = assay: Antifungal activity against Candida albicans SC5314 assessed as inhibition of fungal growth at 0.03125 ug/ml incubated for 18 hrs by M27-A3 based microdilution method relative to control; type: functional
Candida albicans [26] = assay: Antifungal activity against Candida albicans SC5314 assessed as inhibition of fungal growth at 4 ug/ml incubated for 18 hrs by M27-A3 based microdilution method relative to control; type: functional
Candida albicans [27] = assay: Antifungal activity against Candida albicans SC5314 assessed as inhibition of fungal growth at 0.03125 ug/ml incubated for 48 hrs by M27-A3 based microdilution method relative to control; type: functional
Candida albicans [28] = assay: Antifungal activity against Candida albicans SC5314 assessed as inhibition of fungal growth at 0.125 ug/ml incubated for 48 hrs by M27-A3 based microdilution method relative to control; type: functional
Candida albicans [29] = assay: Induction of apoptosis in Candida albicans SC5314 non-protoplast cells assessed as necrotic cells at 16 ug/ml incubated for 18 hrs by PI/Annexin V staining based flow cytometry assay; type: functional; settings: dose 16 µg/ml
Candida albicans [30] = assay: Induction of reactive oxygen species generation in Candida albicans BWP17 assessed as increase in ROS level at 16 ug/ml incubated for 18 hrs by DCFH-DA staining based flow cytometric analysis (reference value: 7.2+/- 0.2%); type: functional; settings: dose 16 µg/ml
Candida albicans [31] = assay: Antifungal activity against Candida albicans SC5314 assessed as inhibition of fungal growth at 0.0625 ug/ml incubated for 18 hrs by M27-A3 based microdilution method relative to control; type: functional
Candida albicans [32] = assay: In vivo antifungal activity against Candida albicans SC5314 infected in Galleria mellonella larvae assessed as survival rate of larvae at 16 ug/ml administered 1 hr post infection measured within 5 days by Hematoxylin and eosin staining; type: functional; settings: SC5314, 120 h, time 5 day
Candida albicans [33] = assay: Induction of reactive oxygen species generation in Candida albicans SC5314 assessed as increase in ROS level at 16 ug/ml incubated for 18 hrs by DCFH-DA staining based flow cytometric analysis (reference value: 0.77+/- 0.4%); type: functional; settings: dose 16 µg/ml
Candida albicans [34] = assay: Induction of reactive oxygen species generation in Candida albicans cnb1delta/cnb1delta mutant assessed as increase in ROS level at 16 ug/ml incubated for 18 hrs by DCFH-DA staining based flow cytometric analysis (reference value: 4.7+/- 5.9%); type: functional; settings: dose 16 µg/ml
Candida albicans [35] = assay: In vivo antifungal activity against Candida albicans SC5314 infected in Galleria mellonella larvae assessed as prevention of candidiasis at 16 ug/ml administered 1 hr prior to infection measured after 5 days by Hematoxylin and eosin staining; type: functional, organism-based; settings: dose 16.0 µg/ml, time 5.0 day
Candida albicans [36] = assay: Antifungal against Candida albicans SC5314 biofilm co-cultured with African green monkey Vero cells assessed as apoptotic-like chromatin aggregation of intact hyphae by measuring green fluorescence emission at 16 ug/ml incubated for 18 hrs by PI/acridine orange double staining based confocal laser scanning microscopic analysis; type: functional, organism-based; settings: dose 16.0 µg/ml
[37] = Toxicity in Galleria mellonella larvae assessed as change in morphology at 16 ug/ml measured after 5 days by Hematoxylin and eosin staining; settings: 120 h, dose 16 µg/ml, time 5 day
Vero = assay: Cytotoxicity against African green monkey Vero cells at > 64 ug/ml measured after 24 hrs by XTT assay; type: toxicity, cell-based; settings: chlorocebus sabaeus, dose > 64 µg/ml

Compound: O=C1CN=C(c2ccccc2Br)c2cc(F)ccc2N1CCCn1nnc(-c2ccc(Cl)cc2)n1
- inhibition at 8 µg/mL (Candida albicans [1]): 99%
- inhibition at 1 µg/mL (Candida albicans [2]): 99.1%
- Activity [3]: Non-Toxic
- inhibition at 16 µg/mL (Candida albicans [4]): 99.5%
- inhibition at 0.5 µg/mL (Candida albicans [5]): 99%
- inhibition at 4 µg/mL (Candida albicans [6]): 99.2%
- inhibition at 0.125 µg/mL (Candida albicans [7]): 98.9%
- Activity [8]: 17%
- inhibition at 2 µg/mL (Candida albicans [9]): 100%
- survival at 16 µg/mL (Candida albicans [10]): 95%
- inhibition at 0.5 µg/mL (Candida albicans [11]): 99%
- inhibition at 0.0625 µg/mL (Candida albicans [12]): 99.3%
- MIC (Candida albicans [13]): 64 µg/mL (≈ 116 µM)
- inhibition (INH) (Candida albicans [14]): 99.24%
- inhibition at 2 µg/mL (Candida albicans [15]): 99.8%
- inhibition at 0.25 µg/mL (Candida albicans [16]): 100%
- Activity (Candida albicans [17]): Active
- inhibition at 8 µg/mL (Candida albicans [18]): 99%
- Activity (Candida albicans [19]): Active
- inhibition at 1 µg/mL (Candida albicans [20]): 99%
- inhibition at 0.25 µg/mL (Candida albicans [21]): 99.9%
- Activity (Candida albicans [22]): 4.2%
- Activity (Candida albicans [23]): 81.23%
- MIC (Candida albicans [24]): 2.56 µg/mL
- inhibition at 0.03125 µg/mL (Candida albicans [25]): 100%
- inhibition at 4 µg/mL (Candida albicans [26]): 99.2%
- inhibition at 0.03125 µg/mL (Candida albicans [27]): 100%
- inhibition at 0.125 µg/mL (Candida albicans [28]): 98.9%
- Activity (Candida albicans [29]): 78.23%
- Activity (Candida albicans [30]): 6.8%
- inhibition at 0.0625 µg/mL (Candida albicans [31]): 99.3%
- survival at 16 µg/mL (Candida albicans [32]): 100%
- Activity (Candida albicans [33]): 19.6%
- Activity (Candida albicans [34]): 3.35%
- Activity (Candida albicans [35]): Active
- Activity (Candida albicans [36]): Active
- Activity [37]: Non-Toxic
- Activity (Vero): Toxic
